Measurements taken from patent US9029567B2, “Hypoglycemic compounds” (Cadila Pharmaceuticals Limited, priority 2010, dated 2015).

Test system: Wistar female rats
Experiment: Oral Glucose Tolerance Test in animals (in vivo screening of hypoglycemic effect)
Conditions: three experiments; for % change in glucose level (Mean ± SEM) 30 Min: 30 min after glucose (2 gm/Kg, given 3 hrs after compound), oral equimolar dose (Sitagliptin 9.0, CPL-2009-0030 11.28, CPL-2009-0031 12.0 mg/kg), no treatment 199 ± 5; for % change in glucose level (Mean ± SEM) 1 Hr: 1 hr after glucose (2 gm/Kg, given 3 hrs after compound), no treatment 154 ± 4; for % change in glucose level (Mean ± SEM) 1 Hr / % change in glucose level (Mean ± SEM) 2 hr: oral equimolar dose; for % change in glucose level (Mean ± SEM) 2 hr: 2 hr after glucose (2 gm/Kg, given 3 hrs after compound), no treatment 122 ± 5
Procedure: The efficacy compound CPL-2009-0030 and CPL-2009-0031 were prepared as per present invention. They were evaluated through Oral Glucose Tolerance Test in animals. Each group consist of 10-12 weeks old Wistar female rats. The animals were divided into 4 different groups of 6 animals per group. The group I received vehical (WFI Placebo), Group II received Sitagliptin as positive control, Group III received CPL-2009-0030 and Group IV received CPL-2009-0031. All animals had over night fasting.
The drug was administrated as per table 01 at 0 hour to all the study group animals with 10 mL/kg of dose volume. The compounds were administered orally. The glucose (2 gm/Kg body weight) was administered 3 hrs after the administration of compounds. Blood glucose was measured at the time of administration of compound, glucose and 30 min, 1 hr, 2 hr, 3 hr and 4 hr after the glucose administration. […] The rise was maximum at 30 min after glucose administration. […] The difference between no treatment group and other three groups is maximum at 30 min and it decreases over time (FIG. 1). […] Thus, the compound of present invention reduces hyperglycaemic effect of glucose without inducing hypoglycaemia. In other words, compounds of present invention provide hypoglycaemic effect only to reduce post-prandial hyperglycaemia without inducing fasting hypoglycaemia.
To confirm the finding the experiment was repeated three times and the percentage change in glucose level over time of three experiments is presented in table 02. The repeat experiments also confirm the findings.

Structure (SMILES) | % change in glucose level (Mean ± SEM) 30 Min [%] | % change in glucose level (Mean ± SEM) 1 Hr [%] | % change in glucose level (Mean ± SEM) 2 hr [%]
CCC(C)C(N)C(=O)NC(CC(=O)N1CCn2c(nnc2C(F)(F)F)C1)Cc1cc(F)c(F)cc1F (stereo not drawn) [CPL-2009-0030] | 145 ± 13 | 127 ± 6 | 108 ± 5
NC(Cc1ccccc1)C(=O)NC(CC(=O)N1CCn2c(nnc2C(F)(F)F)C1)Cc1cc(F)c(F)cc1F (stereo not drawn) [CPL-2009-0031] | 125 ± 3 | 123 ± 4 | 110 ± 3
N[C@@H](CC(=O)N1CCn2c(nnc2C(F)(F)F)C1)Cc1cc(F)c(F)cc1F [Sitagliptin, reference compound] | 149 ± 5 | 130 ± 4 | 109 ± 2
